Source: patent US20240199613A1 (TAKEDA PHARMACEUTICAL COMPANY LIMITED, priority 2021, published 2024)

biological target: human activated kallikrein enzyme (Homo sapiens, UniProt P03952); assay: Inhibition of activated plasma kallikrein, fluorogenic peptide substrate (PFR-AMC) assay, 500 pM enzyme format; type: biochemical; details: 500 pM activated kallikrein, 300 uM PFR-AMC, 30 min preincubation, 10 min reaction, room temperature; read-out: Primary Dose Response Assay: Average EC50
Experimental: Compounds were evaluated for inhibition of the human activated kallikrein enzyme in two formats of an assay employing a fluorogenic peptide substrate. In one assay format, the concentrations of reagents were as follows: 20 mM Tris pH 7.5, 1 mM EDTA, 150 mM sodium chloride, 0.1% PEG-400, 0.1% Triton X-100, 500 pM activated kallikrein enzyme, 300 uM Pro-Phe-Arg-7-amido-4-methylcoumarin (PFR-AMC) substrate. Prior to reaction initiation with substrate, enzyme and inhibitors were preincubated for 30 min at room temperature. After initiation with substrate, reactions were incubated for 10 min at room temperature and fluorescence emission at 460 nm from 380 nm excitation measured with a microplate reader. In another assay format, the concentrations of reagents were as follows: 20 mM Tris pH 7.5, 1 mM EDTA, 150 mM sodium chloride, 0.1% PEG-400, 0.1% Triton X-100, 5 pM activated kallikrein enzyme, 300 uM PFR-AMC substrate. Prior to reaction initiation with substrate, enzyme and inhibitors were preincubated for 30 min at room temperature. After initiation with substrate, reactions were incubated for 18 hr at room temperature and fluorescence emission at 460 nm from 380 nm excitation measured with a microplate reader.
Table 6 provides the results of the assay in the format with 500 pM activated kallikrein assay.

Sequence of human activated kallikrein enzyme (P03952 391-638 limits assumed): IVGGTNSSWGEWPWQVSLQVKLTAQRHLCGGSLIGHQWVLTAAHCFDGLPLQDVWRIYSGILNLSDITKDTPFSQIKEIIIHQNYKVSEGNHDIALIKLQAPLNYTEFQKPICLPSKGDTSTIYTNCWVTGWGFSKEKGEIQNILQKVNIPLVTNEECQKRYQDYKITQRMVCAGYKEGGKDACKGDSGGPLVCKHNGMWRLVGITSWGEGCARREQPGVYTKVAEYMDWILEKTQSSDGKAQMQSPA
Sequence of human activated kallikrein enzyme (P03952 20-390 partner limits assumed): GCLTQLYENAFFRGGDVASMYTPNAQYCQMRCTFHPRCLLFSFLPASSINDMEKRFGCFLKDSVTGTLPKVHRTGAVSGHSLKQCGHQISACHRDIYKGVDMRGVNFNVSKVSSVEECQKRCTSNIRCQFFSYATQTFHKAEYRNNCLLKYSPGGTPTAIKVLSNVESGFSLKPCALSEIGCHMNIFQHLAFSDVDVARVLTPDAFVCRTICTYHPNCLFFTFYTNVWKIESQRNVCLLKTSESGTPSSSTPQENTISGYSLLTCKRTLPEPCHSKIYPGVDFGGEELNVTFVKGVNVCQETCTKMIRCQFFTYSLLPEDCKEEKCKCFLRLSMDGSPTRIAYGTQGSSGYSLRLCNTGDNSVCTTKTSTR

EC50	SMILES
10 to 100 nM	COc1cc([C@H]2C[C@@H]2c2cccc(Cl)c2)nc2cc(NCc3cn4cc(C5CC5)cc(N5CCCC5=O)c4n3)ccc12 (racemic) [Example 4, rac-1-(2-(((2-((7S*,2S*)-2-(3-chlorophenyl)cyclopropyl)-4-methoxyquinolin-7-yl)amino)methyl)-6-cyclopropylimidazo[1,2-a]pyridin-8-yl)pyrrolidin-2-one]
100 to 6500 nM	Cc1ccnc([C@H]2C[C@@H]2c2ccc3ncc(NCc4cn5cc(C6CC6)cc(N6CC(=O)N(C)C6=O)c5n4)cc3c2)n1 (racemic) [Example 16, rac-1-(6-Cyclopropyl-2-(((6-((1S*,2S*)-2-(4-methylpyrimidin-2-yl)cyclopropyl)quinolin-3-yl)amino)methyl)imidazo[1,2-a]pyridin-8-yl)-3-methylimidazolidine-2,4-dione]
100 to 6500 nM	Cc1ccnc([C@H]2C[C@@H]2c2ccc3ncc(N(C)Cc4cn5cc(C6CC6)cc(N6CC(=O)N(C)C6=O)c5n4)cc3c2)n1 (racemic) [Example 17, rac-1-(6-Cyclopropyl-2-((methyl(6-((1S*,2S*)-2-(4-methylpyrimidin-2-yl)cyclopropyl)quinolin-3-yl)amino)methyl)imidazo[1,2-a]pyridin-8-yl)-3-methylimidazolidine-2,4-dione]
1 to 10 nM	Cc1ccnc([C@H]2C[C@@H]2c2ccc3ccc(NCc4cn5cc(C6CC6)ccc5n4)cc3n2)n1 (racemic) [Example 19, rac-N-((6-cyclopropylimidazo[1,2-a]pyridin-2-yl)methyl)-2-((1S*,2S*)-2-(4-methylpyrimidin-2-yl)cyclopropyl)quinolin-7-amine]
100 to 6500 nM	Cc1ccnc([C@H]2C[C@@H]2c2cnc3ccc(NCc4cn5cc(C6CC6)cc(N6CC(=O)N(C)C6=O)c5n4)cc3c2)n1 (racemic) [Example 24, rac-1-(6-cyclopropyl-2-(((3-((1S*,2S*)-2-(4-methylpyrimidin-2-yl)cyclopropyl)quinolin-6-yl)amino)methyl)imidazo[1,2-a]pyridin-8-yl)-3-methylimidazolidine-2,4-dione]
> 6500 nM	COc1cc([C@H]2C[C@@H]2c2cccc(Cl)c2)nc2cc(N(Cc3cn4cc(C5CC5)ccc4n3)C(=O)OC(C)(C)C)ccc12 (racemic) [Example 47, rac-tert-butyl (2-((1S*,2S*)-2-(3-chlorophenyl)cyclopropyl)-4-methoxyquinolin-7-yl)((6-cyclopropylimidazo[1,2-a]pyridin-2-yl)methyl)carbamate]
10 to 100 nM	COc1cc([C@H]2C[C@@H]2c2cccc(Cl)c2)nc2cc(NCc3cn4cc(C5CC5)ccc4n3)ccc12 (racemic) [Example 48, rac-2-((1S*,2S*)-2-(3-chlorophenyl)cyclopropyl)-N-((6-cyclopropylimidazo[1,2-a]pyridin-2-yl)methyl)-4-methoxyquinolin-7-amine]
1 to 10 nM	O=c1cc(C2C[C@@H]2c2cccc(Cl)c2)[nH]c2cc(NCc3cn4cc(C5CC5)ccc4n3)ccc12 (mixture of isomers) [Example 49, rac-2-((1S*,2S*)-2-(3-chlorophenyl)cyclopropyl)-7-(((6-cyclopropylimidazo[1,2-a]pyridin-2-yl)methyl)amino)quinolin-4 (1H)-one]
100 to 6500 nM	Cc1ccnc([C@H]2C[C@@H]2c2cnc3ccc(NCc4cn5cc(C6CC6)cc(N6CC(=O)N(C)C6=O)c5n4)cc3n2)n1 (racemic) [Example 62, rac-1-(6-cyclopropyl-2-(((3-((1S*,2S*)-2-(4-methylpyrimidin-2-yl)cyclopropyl)quinoxalin-6-yl)amino)methyl)imidazo[1,2-a]pyridin-8-yl)-3-methylimidazolidine-2,4-dione]
100 to 6500 nM	Cc1ccnc([C@H]2C[C@@H]2c2ncc3cnc(NCc4cn5cc(C6CC6)cc(N6CC(=O)N(C)C6=O)c5n4)cc3n2)n1 (racemic) [Example 63, rac-1-(6-cyclopropyl-2-(((2-((1S*,2S*)-2-(4-methylpyrimidin-2-yl)cyclopropyl)pyrido[4,3-d]pyrimidin-7-yl)amino)methyl)imidazo[1,2-a]pyridin-8-yl)-3-methylimidazolidine-2,4-dione]
> 6500 nM	Cc1ccnc([C@H]2C[C@@H]2c2ccc3cccc(NCc4cn5cc(C6CC6)cc(N6CC(=O)N(C)C6=O)c5n4)c3n2)n1 (racemic) [Example 70, rac-1-(6-cyclopropyl-2-(((2-((1S*,2S*)-2-(4-methylpyrimidin-2-yl)cyclopropyl)quinolin-8-yl)amino)methyl)imidazo[1,2-a]pyridin-8-yl)-3-methylimidazolidine-2,4-dione]
> 6500 nM	Cc1ccnc([C@H]2C[C@@H]2c2ccc3ncn(Cc4cn5cc(C6CC6)cc(N6CC(=O)N(C)C6=O)c5n4)c3n2)n1 (racemic) [Example 71, rac-1-(6-cyclopropyl-2-((5-((1S*,2S*)-2-(4-methylpyrimidin-2-yl)cyclopropyl)-3H-imidazo[4,5-b]pyridin-3-yl)methyl)imidazo[1,2-a]pyridin-8-yl)-3-methylimidazolidine-2,4-dione]
100 to 6500 nM	Cc1ccnc([C@H]2C[C@@H]2c2ccc3c(ncn3Cc3cn4cc(C5CC5)cc(N5CC(=O)N(C)C5=O)c4n3)n2)n1 (racemic) [Example 72, rac-1-(6-cyclopropyl-2-((5-((1S*,2S*)-2-(4-methylpyrimidin-2-yl)cyclopropyl)-1H-imidazo[4,5-b]pyridin-1-yl)methyl)imidazo[1,2-a]pyridin-8-yl)-3-methylimidazolidine-2,4-dione]
10 to 100 nM	Cc1ccnc([C@H]2C[C@@H]2c2cc(C#N)c3ccc(NCc4cn5cc(C6CC6)cc(N6CC(=O)N(C)C6=O)c5n4)cc3n2)n1 (racemic) [Example 73, rac-7-(((6-cyclopropyl-8-(3-methyl-2,4-dioxoimidazolidin-1-yl)imidazo[1,2-a]pyridin-2-yl)methyl)amino)-2-((1S*,2S*)-2-(4-methylpyrimidin-2-yl)cyclopropyl)quinoline-4-carbonitrile]
≤ 1 nM	COCc1cc([C@H]2C[C@@H]2c2nccc(C)n2)nc2cc(NCc3cn4cc(C5CC5)cc(N5CC(=O)N(C)C5=O)c4n3)ccc12 (racemic) [Example 76, rac-1-(6-cyclopropyl-2-(((4-(methoxymethyl)-2-((1S*,2S*)-2-(4-methylpyrimidin-2-yl)cyclopropyl)quinolin-7-yl)amino)methyl)imidazo[1,2-a]pyridin-8-yl)-3-methylimidazolidine-2,4-dione]
1 to 10 nM	CN1C(=O)CN(c2cc(C3CC3)cn3cc(CNc4ccc5ccc([C@H]6C[C@@H]6c6cc(Cl)ccc6C#N)nc5c4)nc23)C1=O (racemic) [Example 83, rac-4-chloro-2-((1S*,2S*)-2-(7-(((6-cyclopropyl-8-(3-methyl-2,4-dioxoimidazolidin-1-yl)imidazo[1,2-a]pyridin-2-yl)methyl)amino)quinolin-2-yl)cyclopropyl)benzonitrile]
10 to 100 nM	COc1cc(OCc2cn3cc(C4CC4)cc(N4CC(=O)N(C)C4=O)c3n2)cc2nc([C@H]3C[C@@H]3c3nccc(C)n3)ccc12 (racemic) [Example 102, rac-1-(6-cyclopropyl-2-(((5-methoxy-2-((1S*,2S*)-2-(4-methylpyrimidin-2-yl)cyclopropyl)quinolin-7-yl)oxy)methyl)imidazo[1,2-a]pyridin-8-yl)-3-methylimidazolidine-2,4-dione]
1 to 10 nM	Cc1ccnc([C@H]2C[C@@H]2c2nc3cc(NCc4cn5cc(C6CC6)ccc5n4)ccc3c(=O)[nH]2)n1 (relative stereo) [Example 3]
1 to 10 nM	COc1cc([C@H]2C[C@@H]2c2nccc(C)n2)nc2cc(N3C[C@@H](O)C[C@@H]3c3cn4cc(C5CC5)ccc4n3)ccc12 (relative stereo) [Example 53, (3S,5R)-5-(6-cyclopropylimidazo[1,2-a]pyridin-2-yl)-1-(4-methoxy-2-(rac-(1S*,2S*)-2-(4-methylpyrimidin-2-yl)cyclopropyl)quinolin-7-yl)pyrrolidin-3-ol]
> 6500 nM	O[C@H]1C[C@H](c2cn3cc(C4CC4)ccc3n2)N(c2cc3[nH]c([C@H]4C[C@@H]4c4cccc(Cl)c4)c(F)c3cn2)C1 (relative stereo) [Example 56, rac-(3S,5R)-1-(2-((1S*,2S*)-2-(3-chlorophenyl)cyclopropyl)-3-fluoro-1H-pyrrolo[3,2-c]pyridin-6-yl)-5-(6-cyclopropylimidazo[1,2-a]pyridin-2-yl)pyrrolidin-3-ol]
1 to 10 nM	Cc1ccnc([C@H]2C[C@@H]2c2ccc3ccc(NCc4cn5cc(C6CC6)cc(N6C(=O)N(C)C(=O)C6C6(O)COC6)c5n4)cc3n2)n1 (relative stereo) [Example 90, rac-1-(6-cyclopropyl-2-(((2-((1S*,2S*)-2-(4-methylpyrimidin-2-yl)cyclopropyl)quinolin-7-yl)amino)methyl)imidazo[1,2-a]pyridin-8-yl)-5-(3-hydroxyoxetan-3-yl)-3-methylimidazolidine-2,4-dione]
10 to 100 nM	Cc1ccnc([C@@H]2C[C@H]2c2ccc3ccc(NCc4cn5cc(C6CC6)cc(N6CC(=O)N(C)C6=O)c5n4)cc3n2)n1 (single isomer, unassigned) [Example 58]
10 to 100 nM	Cc1ccnc([C@@H]2C[C@H]2C2=NS(=O)(=O)c3ccc(NCc4cn5cc(C6CC6)ccc5n4)cc3N2)n1 (single isomer, unassigned) [Example 66]
